Results as given in patent publication US20160152976A1, “COMPOUND ADMINISTRATION PRECURSOR AND MEDICAMENT CARRIER PREPARATION” (HitGen LTD., priority 2013, published 2016).
{C12NH2} = amino-(CH2)12 linker attached through a phosphate; {C12NH2-P} = aminododecyl phosphate linker; {FITC} = fluorescein isothiocyanate label

The compounds below were run on HepG2 cells (assay: not given). Conditions: original compound 2 linked to the fluorescent tag (FIG. 8A).

Which entry into cells does the source give for `C#CCN(CC1CCN(C(=O)Nc2ccccc2)CC1)c1cccc(-c2sc(C(=O)O)c(OCC(=O)O)c2Br)c1` [compound 2, 4-bromo-3-oxoacetic acid-5-(3-(((1-phenylcarbamoylpiperidine)-4-methyl)-N-propargylamine)phenyl)thiophene-2-formic acid] here?
Its entry into cells is “can not enter the cells”.

Each compound was assayed on HepG2 cells (assay: Transmembrane transfer of DNA/RNA fragments and drug-delivery precursors into HepG2 cells, laser confocal microscope). Conditions: 4 nmol, X-tremeGENEsiRNA transfection reagent, 6 h, laser confocal microscope (FIG. 11).
Assay type: cell-based
Experimental: 24 h before transfer, the HepG2 cells in the phase of logarithmic growth were digested with trypsin; a culture medium containing 10% serum was used for adjusting the cell density to 0.5×10^6 cells/mL; and the cells were inoculated again in a cell culture dish of 15 cm and cultured in a culture incubator containing 5% CO2 at 37° C. The cells may be used for experiments when the cell density reaches 60% to 70% 24 h later.
4 nmol of the above-mentioned single-stranded or double-stranded DNA/RNA fragments in different sequences and various drug-delivery precursors was added to a sterile centrifuge tube (tube A) of 15 mL, respectively, and uniformly mixed with Opti-MEM in a corresponding volume, with a total volume of 2 mL; the X-tremeGENEsiRNA reagent was shaken gently, and 160 μL of X-tremeGENEsiRNA reagent was mixed with 1.84 mL of Opti-MEM in another tube (tube B); and the solution in the tube A was mixed with the solution in the tube B, the mixture was slightly triturated by a pipette and incubated for 20 min at room temperature.
6 mL of RPMI-1640 serum-free culture medium was added to the mixture and mixed uniformly; the primary culture medium in the HepG2 cell culture dish was discarded, and slightly triturated with RPMI-1640 serum-free culture medium once; and then, the mixture was moved into the HepG2-PT cell culture dish, and cultured in a culture incubator containing 5% CO2 at 37° C.

For “5-NH2—(CH2)12—PO4-TGGGCTGGCCAAACTGCTG-3′-FITC (DNA, 5' {C12NH2}, 3' {FITC}, backbone not given here)”, which “transfer into cells and positioning in the cells” value is on record?
Its value is “may be all transferred into cells by X-tremesiRNA, with most of them into the cytoplasm and a few of them into the cell nucleus”.

How did the “transfer into cells and positioning in the cells” value turn out when “5′-NH2—(CH2)2—PO4-A19-3′-FITC [polyA of 19 bp]” was run?
Its value is “may be all transferred into cells by X-tremesiRNA, with most of them into the cytoplasm and a few of them into the cell nucleus”.

For “5′-NH2—(CH2)12—PO4-A5-3′-FITC [polyA of 5 bp]”, which “transfer into cells and positioning in the cells” value is on record?
The value was “may be all transferred into cells by X-tremesiRNA, with most of them into the cytoplasm and a few of them into the cell nucleus”.

For “5′-NH2—(CH2)12—PO4-A38-3′-FITC [polyA of 38 bp]”, which “transfer into cells and positioning in the cells” value is on record?
Its value is “may be all transferred into cells by X-tremesiRNA, with most of them into the cytoplasm and a few of them into the cell nucleus”.

With “5′-NH2—(CH2)12—PO4TGGGCTGGCCAAACTGCTG-3′-FITC: 5′-CAGCAGTTTGGCCAGCCCA-3′ (chain 1: DNA, 5' {C12NH2-P}, 3' {FITC}, backbone not given here; chain 2: DNA, backbone not given here)” as the compound, how does the “transfer into cells and positioning in the cells” value read?
Its value is “may be all transferred into cells by X-tremesiRNA, with most of them into the cytoplasm and a few of them into the cell nucleus”.
